In ChEMBL document CHEMBL1124047, “Acetohydroxamic acids as potent, selective, orally active 5-lipoxygenase inhibitors” (J Med Chem, 1988):

Experiments:
[1] = target: T1, Polyunsaturated fatty acid 5-lipoxygenase (Homo sapiens, UniProt P09917); experiment: In vitro inhibition of 5-lipoxygenase from human polymorphs
T1 sequence (P09917 whole entry): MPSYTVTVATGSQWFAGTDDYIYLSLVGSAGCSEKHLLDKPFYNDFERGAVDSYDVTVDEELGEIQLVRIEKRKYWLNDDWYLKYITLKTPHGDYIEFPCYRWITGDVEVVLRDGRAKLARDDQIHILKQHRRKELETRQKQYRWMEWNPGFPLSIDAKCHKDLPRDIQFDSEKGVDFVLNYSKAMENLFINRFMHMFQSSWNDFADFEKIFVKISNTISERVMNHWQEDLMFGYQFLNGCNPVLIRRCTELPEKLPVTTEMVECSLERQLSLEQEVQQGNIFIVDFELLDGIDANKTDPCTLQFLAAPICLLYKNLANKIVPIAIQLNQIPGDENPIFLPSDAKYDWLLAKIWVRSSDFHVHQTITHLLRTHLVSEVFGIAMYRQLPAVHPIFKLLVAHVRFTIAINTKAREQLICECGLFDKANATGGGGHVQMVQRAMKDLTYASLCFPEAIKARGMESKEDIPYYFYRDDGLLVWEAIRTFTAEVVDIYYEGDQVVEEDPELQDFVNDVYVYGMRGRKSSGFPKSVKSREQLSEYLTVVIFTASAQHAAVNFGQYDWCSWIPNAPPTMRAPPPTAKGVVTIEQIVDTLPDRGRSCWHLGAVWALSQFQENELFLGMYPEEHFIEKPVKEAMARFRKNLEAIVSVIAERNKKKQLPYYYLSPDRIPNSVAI

Cyclooxygenase = Cyclooxygenase (Homo sapiens, UniProt P35354+P23219); experiment: In vitro inhibition of Prostaglandin G/H synthase from human polymorphs; assay type: protein assay

Row | IC50 [1] | IC50 (Cyclooxygenase) | SMILES
1 | 0.05 µM | 5 µM | CN(O)C(=O)/C=C/c1cccc(Oc2ccccc2)c1
2 | – | 3.2 µM | CC(=O)N(O)C/C=C/c1cccc(Oc2ccccc2)c1
3 | 0.77 µM | 22 µM | CC(=O)N(O)Cc1ccc(OCc2ccccc2)cc1
